Here are results for two compounds from BindingDB's records for doi:10.1021/jm00038a002 (George Washington University Medical Center, 1994).

Structures are written as SMILES. pKi: −log10 of the molar value.

In assay [1] the target is Sigma non-opioid intracellular receptor 1 (Cavia porcellus) (UniProt Q60492). In words: Binding affinity against sigma-1 receptor in guinea pig brain using [3H](+)-pentazocine as radioligand.
The target is the same in assay [2]. Description: Binding affinity against sigma-1 receptor in guinea pig brain using [3H](+)-pentazocine as radioligand.

Chain of Sigma non-opioid intracellular receptor 1 (Cavia porcellus) (Q60492 whole entry, looked up): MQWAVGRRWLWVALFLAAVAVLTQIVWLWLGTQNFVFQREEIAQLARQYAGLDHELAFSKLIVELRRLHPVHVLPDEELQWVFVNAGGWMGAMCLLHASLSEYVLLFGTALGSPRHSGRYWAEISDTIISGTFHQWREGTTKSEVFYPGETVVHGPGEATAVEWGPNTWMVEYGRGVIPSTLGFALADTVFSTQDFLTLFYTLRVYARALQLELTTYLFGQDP

As a reminder, the pKi is the Ki on a negative log10 scale, so that one unit is a factor of ten. Compound `O=C(NC1CCN(Cc2ccccc2)CC1)c1ccccc1I` [N-(1-Benzyl-piperidin-4-yl)-2-iodo-benzamide] gave a pKi in assay [1] of 8.79.

`O=C(NC1CCN(Cc2ccccc2)CC1)c1cccc(I)c1` [N-(1-Benzyl-piperidin-4-yl)-3-iodo-benzamide]: in assay [2], the pKi was 8.52.
